In patent publication US20230111310A1, “CARBOXYLIC ACID DERIVATIVE-SUBSTITUTED IMINO ARYL COMPOUND, PREPARATION METHOD THEREFOR, HERBICIDAL COMPOSITION AND USE THEREOF” (Qingdao Kingagroot Chemical Compound Co., Ltd., priority 2020, published 2023):

System: Soybeans
Experiment: Pre-emergence stage, crop selectivity
Type: in vivo
Settings: 30 g/ha, 4 weeks
Experimental: (§1) The activity level criteria for plant damage (i.e., growth control rate) are as follows:
(§2) The aforementioned seeds of monocotyledonous and dicotyledonous weeds and main crops were put into a plastic pot loaded with soil and covered with 0.5-2 cm soil. The test compounds of the present invention was dissolved with acetone, then added with tween 80, diluted by a certain amount of water to reach a certain concentration, and sprayed immediately after sowing. The obtained seeds were incubated for 4 weeks in the greenhouse after spraying and the test results were observed. It was observed that the herbicide mostly had excellent effect at the application rate of 500, 250, 125, 60, 30, 15, 7.5 g/ha, especially to weeds such as Echinochloa crusgalli. Digitaria sanguinalis and Abutilon theophrasti, etc. And many compounds had good selectivity for corn, cotton, wheat, rice, soybean, and peanut etc. In addition, evaluate the weed control effect with the above activity standard level.

| SMILES | plant damage level Soybeans |
| --- | --- |
| C[C@@H](O/N=C/c1cc(-n2c(=O)cc(C(F)(F)F)n(C)c2=O)c(F)cc1Cl)C(=O)OCCF [216(R)] | 0 (Level 0: growth control rate is less than 5%) |

System: corn
Experiment: Pre-emergence stage, crop selectivity
Type: in vivo
Settings: 30 g/ha, 4 weeks
Experimental: as §1, §2

| SMILES | plant damage level Corn |
| --- | --- |
| C[C@@H](O/N=C/c1cc(-n2c(=O)cc(C(F)(F)F)n(C)c2=O)c(F)cc1Cl)C(=O)OCCF [216(R)] | 0 (Level 0: growth control rate is less than 5%) |

System: cotton
Experiment: Pre-emergence stage, crop selectivity
Type: in vivo
Settings: 30 g/ha, 4 weeks
Experimental: as §1, §2

| SMILES | plant damage level Cotton |
| --- | --- |
| C[C@@H](O/N=C/c1cc(-n2c(=O)cc(C(F)(F)F)n(C)c2=O)c(F)cc1Cl)C(=O)OCCF [216(R)] | 0 (Level 0: growth control rate is less than 5%) |

System: Peanut
Experiment: Pre-emergence stage, crop selectivity
Type: in vivo
Settings: 30 g/ha, 4 weeks
Experimental: as §1, §2

| SMILES | plant damage level Peanut |
| --- | --- |
| C[C@@H](O/N=C/c1cc(-n2c(=O)cc(C(F)(F)F)n(C)c2=O)c(F)cc1Cl)C(=O)OCCF [216(R)] | 0 (Level 0: growth control rate is less than 5%) |

System: Descurainia sophia
Experiment: Weeding effect in pre-emergence stage
Type: in vivo
Settings: 30 g/ha, 4 weeks
Experimental: as §1, §2

| SMILES | activity level (growth control rate) Descurainia sophia |
| --- | --- |
| C[C@@H](O/N=C/c1cc(-n2c(=O)cc(C(F)(F)F)n(C)c2=O)c(F)cc1Cl)C(=O)OCCF [216(R)] | 5 (Level 5: growth control rate is above 85%) |

System: Amaranthus retroflexus
Experiment: Weeding effect in pre-emergence stage
Type: in vivo
Settings: 30 g/ha, 4 weeks
Experimental: as §1, §2

| SMILES | activity level (growth control rate) Amaranthus retroflexus |
| --- | --- |
| C[C@@H](O/N=C/c1cc(-n2c(=O)cc(C(F)(F)F)n(C)c2=O)c(F)cc1Cl)C(=O)OCCF [216(R)] | 5 (Level 5: growth control rate is above 85%) |

System: Capsella bursa-pastoris
Experiment: Weeding effect in pre-emergence stage
Type: in vivo
Settings: 30 g/ha, 4 weeks
Experimental: as §1, §2

| SMILES | activity level (growth control rate) Capsella bursa-pastoris |
| --- | --- |
| C[C@@H](O/N=C/c1cc(-n2c(=O)cc(C(F)(F)F)n(C)c2=O)c(F)cc1Cl)C(=O)OCCF [216(R)] | 5 (Level 5: growth control rate is above 85%) |

System: Abutilon theophrasti
Experiment: Weeding effect in pre-emergence stage
Type: in vivo
Settings: 30 g/ha, 4 weeks
Experimental: as §1, §2

| SMILES | activity level (growth control rate) Abutilon theophrasti |
| --- | --- |
| C[C@@H](O/N=C/c1cc(-n2c(=O)cc(C(F)(F)F)n(C)c2=O)c(F)cc1Cl)C(=O)OCCF [216(R)] | 5 (Level 5: growth control rate is above 85%) |

System: Setaria viridis
Experiment: Weeding effect in pre-emergence stage
Type: in vivo
Settings: 30 g/ha, 4 weeks
Experimental: as §1, §2

| SMILES | activity level (growth control rate) Setaria viridis |
| --- | --- |
| C[C@@H](O/N=C/c1cc(-n2c(=O)cc(C(F)(F)F)n(C)c2=O)c(F)cc1Cl)C(=O)OCCF [216(R)] | 5 (Level 5: growth control rate is above 85%) |

System: Veronica didyma Tenore
Experiment: Weeding effect in pre-emergence stage
Type: in vivo
Settings: 30 g/ha, 4 weeks
Experimental: as §1, §2

| SMILES | activity level (growth control rate) Veronica didyma Tenore |
| --- | --- |
| C[C@@H](O/N=C/c1cc(-n2c(=O)cc(C(F)(F)F)n(C)c2=O)c(F)cc1Cl)C(=O)OCCF [216(R)] | 5 (Level 5: growth control rate is above 85%) |

System: Digitaria sanguinalis
Experiment: Weeding effect in post-emergence stage
Type: in vivo
Settings: Dose 15 g/ha; level of fresh weight growth control rate
Summary of the method: (§3)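 Weeds were treated post-emergence at 2-3 leaves with compound doses from 7.5 up to 500 g/ha, formulated in acetone–Tween 80 with methyl oleate synergist. Efficacy was assessed as growth control after 3 weeks.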

| SMILES | Weeding effect in post-emergence stage, Digitaria sanguinalis |
| --- | --- |
| C[C@@H](O/N=C/c1cc(-n2c(=O)cc(C(F)(F)F)n(C)c2=O)c(F)cc1Cl)C(=O)OCCF [216(R)] | 5 (Level 5: growth control rate is above 85%) |

System: Abutilon theophrasti
Experiment: Weeding effect in post-emergence stage
Type: in vivo
Settings: Dose 15 g/ha; level of fresh weight growth control rate
Summary of the method: as §3

| SMILES | Weeding effect in post-emergence stage, Abutilon theophrasti |
| --- | --- |
| C[C@@H](O/N=C/c1cc(-n2c(=O)cc(C(F)(F)F)n(C)c2=O)c(F)cc1Cl)C(=O)OCCF [216(R)] | 5 (Level 5: growth control rate is above 85%) |

System: Setaria viridis
Experiment: Weeding effect in post-emergence stage
Type: in vivo
Settings: Dose 15 g/ha; level of fresh weight growth control rate
Summary of the method: as §3

| SMILES | Weeding effect in post-emergence stage, Setaria viridis |
| --- | --- |
| C[C@@H](O/N=C/c1cc(-n2c(=O)cc(C(F)(F)F)n(C)c2=O)c(F)cc1Cl)C(=O)OCCF [216(R)] | 5 (Level 5: growth control rate is above 85%) |

System: Eleusine indica
Experiment: Weeding effect in post-emergence stage
Type: in vivo
Settings: Dose 15 g/ha; level of fresh weight growth control rate
Summary of the method: as §3

| SMILES | Weeding effect in post-emergence stage, Eleusine indica |
| --- | --- |
| C[C@@H](O/N=C/c1cc(-n2c(=O)cc(C(F)(F)F)n(C)c2=O)c(F)cc1Cl)C(=O)OCCF [216(R)] | 5 (Level 5: growth control rate is above 85%) |

System: Alopecurus japonicus
Experiment: Weeding effect in post-emergence stage
Type: in vivo
Settings: Dose 15 g/ha; level of fresh weight growth control rate
Summary of the method: as §3

| SMILES | Weeding effect in post-emergence stage, Alopecurus japonicus |
| --- | --- |
| C[C@@H](O/N=C/c1cc(-n2c(=O)cc(C(F)(F)F)n(C)c2=O)c(F)cc1Cl)C(=O)OCCF [216(R)] | 4 (Level 4: growth control rate is greater than or equal to 60% and less than 85%) |

System: Echinochloa crusgalli
Experiment: Weeding effect in post-emergence stage
Type: in vivo
Settings: Dose 15 g/ha; level of fresh weight growth control rate
Summary of the method: as §3

| SMILES | Weeding effect in post-emergence stage, Echinochloa crusgalli |
| --- | --- |
| C[C@@H](O/N=C/c1cc(-n2c(=O)cc(C(F)(F)F)n(C)c2=O)c(F)cc1Cl)C(=O)OCCF [216(R)] | 5 (Level 5: growth control rate is above 85%) |
